Article PMC4627231, “Targeting the sugar metabolism of tumors with a first-in-class 6-phosphofructo-2-kinase (PFKFB4) inhibitor” (Oncotarget, 2015)

Experiments:
[1] = test system: Large T antigen-immortalized, tamoxifen-inducible PFKFB4-/- fibroblasts; assay: Viable cell count (trypan blue exclusion); assay type: cell-based, mice; conditions: fibroblasts ± 10 μM 4HT, 10 μM 5MPN, 24 hours
Excerpt: H460, H1299, H441, H522 and A549 non-small cell lung cancer (NSCLC), MDA-MB-231 (breast), LNCaP (prostatic) and HCT116 (colon) adenocarcinoma and Lewis lung carcinoma (LLC) cell lines were obtained from ATCC (authenticated by STR analysis) and were used within 6 months of acquisition. PFKFB4^−/− ear pinna fibroblasts isolated from TamCre/loxP/PFKFB4^−/− mice were immortalized as described previously. Normal bronchial epithelial cells (NHBE) were obtained from Lonza and NHBE cells expressing telomerase, SV40 large T antigen and activated Ras (hT/LT/Ras) were a gift from Dr. B. J. Rollins, Dana Farber Cancer Institute. All cell lines were tested and found negative for mycoplasma (PCR Mycoplasma Detection Kit, ABM). Cell lines were grown in DMEM (A549, LNCaP, MDA-MB-231, LLC and PFKFB4^−/−), RPMI 1640 (H460, H1299, H441, H522) and McCoy's 5A media (HCT116) (all from Invitrogen) containing 10% fetal calf serum (Hyclone). NHBE and hT/LT/Ras cells were grown in BEGM containing SingleQuots (Lonza). All lines were cultured at 37°C in 5% CO2. […]
Viability was determined using trypan blue exclusion as previously described. […] Cells excluding trypan blue were counted using a standard hemocytometer (Hausser Scientific) to determine total numbers of viable cells. Data are expressed as mean ± SD of three experiments.

[2] = test system: recombinant PFK-1; assay: PFK-1 kinase activity; assay type: biochemical; conditions: 10 μM
[3] = test system: H460 cells; assay: Cell cycle analysis by flow cytometry (PI); assay type: cell-based, human; conditions: 10μM 5MPN
Protocol: To measure apoptosis, cells were stained with annexin V and propidium iodide and examined as previously described. For cell cycle experiments, cells were detached, washed with cold PBS and fixed in 70% ethanol at 4°C for 30 minutes. The cells then were pelleted by centrifugation, resuspended in PBS containing PI and RNase A, incubated at 37°C in the dark for 30 minutes and analyzed by flow cytometry (BD FACSCalibur). Data were analyzed using FlowJo software (TREE STAR Inc.). Results were calculated as the mean ± SD of three experiments and data shown are representative of three independent experiments.

COc1cccc2c(NCCCCCO[N+](=O)[O-])ccnc12 [Compound 5MPN, 5-(n-(8-methoxy-4-quinolyl)amino)pentyl nitrate]
effect of genomic deletion of Pfkfb4 on anti-proliferative effect [1]: sensitized
inhibition of PFK-1 kinase activity [2]: no inhibition of kinase activity
cell cycle arrest [3]: marked G1 arrest
